Results published in US11339151B2, “Aliphatic acid amide derivative” (Sumitomo Dainippon Pharma Co., Ltd., priority 2019, dated 2022).

Assays:
[1] = target: T1, human 5-HT7 receptor (Homo sapiens (Human), UniProt P34969); assay: Test 2: antagonist activity for human 5-HT7 receptor (aequorin luminescence, CHO-K1 cells); assay type: cell-based; conditions: Gα16
Method: Test 2: Evaluation of Antagonist Activity for Human 5-HT2A Receptor and Human 5-HT7 Receptor
Aequorin, Gα 16 protein, and each receptor were transiently expressed in CHO-K1 cells (Chinese hamster ovary). The cells were cultivated in a CO2 incubator at 37° C. overnight, seeded into a 384-well plate, and stood at room temperature for 2 hours. Each compound dissolved in DMSO was added thereto, and changes in luminescence were measured by FDSS/μCELL drug discovery screening support system (Hamamatsu Photonics K.K.). As for antagonist activity, inhibitory activity of each compound was calculated by setting the luminescence level of wells to which 10 μmol/L endogenous ligand was added as 100%.

[2] = Test 3-1: metabolic stability test in human hepatic microsome; assay type: in vitro ADME; conditions: microsome 0.1 mg/mL, test compound 0.1 μmol/L, 37° C., 30 minutes
Method: Test 3-1: Metabolic Stability Test in Human Hepatic Microsome
The metabolic stability of the present compound in human hepatic microsome was evaluated as mentioned below. Human hepatic microsome was obtained from Xenontech. Human hepatic microsome, NADPH, and each test compound were mixed in 25 mmol/L phosphate buffer solution (pH 7.4) to reach the following concentrations as shown below, and the mixture was incubated at 37° C. for 30 minutes. • Human hepatic microsome: 0.1 mg/mL • NADPH: 3.2 mmol/L • Test compound: 0.1 μmol/L
The residual ratio of test compound in each sample after 30 minutes was measured by LC-MS, and the metabolic stability in human hepatic microsome was calculated from the following formula. Metabolic stability in human hepatic microsome (mL/min/mg protein)=−LN (residual ratio)/30/0.1

[3] = target: human D2 receptor (Homo sapiens (Human), UniProt P14416); assay: Test 1: binding activity for human D2 receptor ([3H]Spiperone, CHO cell membrane fraction); conditions: [3H]Spiperone, room temperature 60 minutes
Method: (§1) Ki value was evaluated from dissociation constant which was calculated from saturated binding tests, and a substrate concentration, and it was used as an index for binding affinity.

[4] = target: T1, human 5-HT7 receptor; assay: Test 1: binding activity for human 5-HT7 receptor ([3H]SB-269970, CHO cell membrane fraction); conditions: [3H]SB-269970, room temperature 60 minutes
Method: as §1

Sequence of human D2 receptor (P14416 whole entry): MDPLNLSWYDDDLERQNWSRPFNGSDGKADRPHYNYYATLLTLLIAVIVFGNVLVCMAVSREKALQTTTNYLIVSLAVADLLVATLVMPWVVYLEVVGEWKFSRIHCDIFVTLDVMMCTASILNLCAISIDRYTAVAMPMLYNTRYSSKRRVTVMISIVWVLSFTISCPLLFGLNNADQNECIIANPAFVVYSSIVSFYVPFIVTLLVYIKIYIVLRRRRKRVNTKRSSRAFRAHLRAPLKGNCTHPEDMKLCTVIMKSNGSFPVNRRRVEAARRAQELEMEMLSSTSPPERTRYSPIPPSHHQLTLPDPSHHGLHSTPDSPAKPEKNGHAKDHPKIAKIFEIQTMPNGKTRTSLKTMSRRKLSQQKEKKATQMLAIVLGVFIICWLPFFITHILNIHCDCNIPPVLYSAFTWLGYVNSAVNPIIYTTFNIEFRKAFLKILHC
T1 sequence (P34969 whole entry): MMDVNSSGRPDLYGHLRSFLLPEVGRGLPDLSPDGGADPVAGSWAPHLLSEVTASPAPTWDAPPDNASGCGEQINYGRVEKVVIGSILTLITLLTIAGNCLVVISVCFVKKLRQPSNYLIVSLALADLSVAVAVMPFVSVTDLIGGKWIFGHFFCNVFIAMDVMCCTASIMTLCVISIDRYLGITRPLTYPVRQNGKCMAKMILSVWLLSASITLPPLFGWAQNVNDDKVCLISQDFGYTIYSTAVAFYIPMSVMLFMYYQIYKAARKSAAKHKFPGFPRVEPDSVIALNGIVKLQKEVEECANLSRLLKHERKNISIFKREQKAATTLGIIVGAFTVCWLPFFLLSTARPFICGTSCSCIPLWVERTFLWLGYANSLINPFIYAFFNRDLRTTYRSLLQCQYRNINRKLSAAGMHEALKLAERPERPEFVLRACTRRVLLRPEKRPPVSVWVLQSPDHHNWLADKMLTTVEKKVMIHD

Row | SMILES | IC50 [1] | Metabolic stability in human hepatic microsome [2] | Ki [3] | Ki [4]
1 | CCN(CCN1CCC(c2noc3cc(F)ccc23)CC1)C(=O)C1CC(O)C1 (centres unmarked) [Example 46] | 83 nM | <0.05 mL/min/mg protein | 75 nM | 4.2 nM
2 | CCN(CCN1CCC(c2noc3cc(F)ccc23)CC1)C(=O)C(F)(F)CO [Example 36] | 82 nM | <0.05 mL/min/mg protein | 80 nM | 1 nM
3 | CCN(CCN1CCC(c2noc3cc(Cl)ccc23)CC1)S(=O)(=O)CCO [Example 60] | 72 nM |  | > 1000 nM | 24.3 nM
4 | CCCN(CCN1CCC(c2noc3cc(F)ccc23)CC1)C(=O)C(C)O (centres unmarked) [Example 39] | 9 nM | <0.05 mL/min/mg protein | < 100 nM | 0.7 nM
5 | CCN(CCN1CCC(c2noc3cc(F)ccc23)CC1)C(=O)C1CCC(O)CC1 (centres unmarked) [Example 9] | 8 nM | <0.05 mL/min/mg protein | < 100 nM | 1.6 nM
6 | CCN(CCCN1CCN(c2noc3cc(F)ccc23)CC1)S(=O)(=O)C(C)CO (centres unmarked) [Example 55] | 3 nM | 0.059 mL/min/mg protein | 78 nM | 0.1 nM
7 | CCN(CCCN1CCC(c2noc3ccccc23)CC1)S(=O)(=O)C(C)CO (centres unmarked) [Example 54] | 1 nM | <0.05 mL/min/mg protein | 116 nM | 2.6 nM
8 | CCN(CCN1CCC(c2c[nH]c3cc(F)ccc23)CC1)C(=O)[C@H](C)O [Example 20, (2S)—N-Ethyl-N-{2-[4-(6-fluoro-1H-indol-3-yl)piperidin-1-yl]ethyl}-2-hydroxypropanamide] | 48 nM | <0.05 mL/min/mg protein | 46 nM | 1.5 nM
9 | CCN(CCN1CCC(c2noc3cc(F)ccc23)CC1)C(=O)[C@H]1CC[C@H](O)CC1 [Example 43] | 82 nM | <0.05 mL/min/mg protein | < 100 nM | 4.3 nM
10 | CCN(CCN1CCC(c2noc3cc(F)ccc23)CC1)C(=O)C(O)CN (centres unmarked) [Example 65, 3-Amino-N-ethyl-N-{2-[4-(6-fluoro-1,2-benzoisoxazol-3-yl)piperidin-1-yl]ethyl}-2-hydroxypropanamide] | 81 nM | <0.05 mL/min/mg protein | 195 nM | 7.6 nM
11 | CC(O)C(=O)N(CC#N)CCN1CCC(c2noc3cc(F)ccc23)CC1 (centres unmarked) [Example 32] | 73 nM |  | > 10000 nM | 110 nM
12 | CCN(CCN1CCC(c2noc3cc(F)ccc23)CC1)C(=O)C1CN(C(C)=O)CC1O (centres unmarked) [Example 73] | 81 nM |  | 205 nM | 14.4 nM
13 | CCN(CCN1CCC(c2noc3cc(F)ccc23)CC1)C(=O)[C@H]1NCC[C@H]1O [Example 68] | 91 nM | <0.05 mL/min/mg protein | 910 nM | 48.5 nM
14 | CCN(CCN1CCC(c2noc3cc(F)ccc23)CC1)C(=O)[C@H]1CC[C@@H](O)CC1 [Example 44] | 77 nM | <0.05 mL/min/mg protein | < 100 nM | 3.2 nM
15 | C#CC(O)C(=O)N(CC)CCN1CCC(c2noc3cc(F)ccc23)CC1 (centres unmarked) [Example 28] | 80 nM |  | < 100 nM | 10 nM
16 | CCN(CCN1CCC(c2noc3cc(Cl)ccc23)CC1)C(=O)[C@H](C)O [Example 15] | 86 nM |  | > 1000 nM | 26.4 nM
